Results from patent publication US8466171B2, “Fused heterocyclic compounds useful as modulators of nuclear hormone receptor function” (Bristol-Myers Squibb Company, priority 2007, dated 2013).
Numbering of substitutions follows the chain as printed.

Columns and labels:
immature castrated rats [1] = details: cited from earlier work; for EC50 (increase in organ weight): immature castrated rats, dosing for 3 days
immature castrated rats [2] = experiment: Immature Rat Prostate Weight (IRPW) Assay; format: in vivo; details: TP versus free T
Excerpt: The activity of compounds of Formula (I) as AR antagonists can be investigated in an immature male rat model, as described in L. G. Hershberger et al., Proc. Soc.
Male sexual accessory organs, such as the prostate and seminal vesicles, play an important role in reproductive function. These glands are stimulated to grow and are maintained in size and secretory function by the continued presence of serum testosterone (T), which is the major serum androgen (>95%) produced by the Leydig cells in the testis under the control of the pituitary luteinizing hormone (LH) and follicle stimulating hormone (FSH). […] Adrenal androgens also contribute about 20% of total DHT in the rat prostate, compared to 40% of that in 65-year-old men. […] However, this is not a major pathway, since in both animals and humans, castration leads to almost complete involution of the prostate and seminal vesicles without concomitant adrenalectomy. […] […] […] Since the male sex organs are the tissues most responsive to modulation of the androgen activity, this model is used to determine the androgen dependent growth of the sex accessory organs in immature castrated rats.
Male immature rats (19-20 days old Sprague-Dawley, Harlan Sprague-Dawley) are castrated under metofane anesthesia. […] Experimental groups are as follows:
At the end of the 3-day treatment, the animals are sacrificed, and the ventral prostate weighed. […]

androgen receptor (AR) = target: T1, androgen receptor (AR) (Homo sapiens, UniProt P10275); experiment: MDA-MB-453 Androgen Receptor Transactivation Assay; format: cell-based; details: MDA-MB-453 cells, PSA-Luc reporter, 3 nM DHT, 48 hour incubation
T1 sequence (P10275 1-920): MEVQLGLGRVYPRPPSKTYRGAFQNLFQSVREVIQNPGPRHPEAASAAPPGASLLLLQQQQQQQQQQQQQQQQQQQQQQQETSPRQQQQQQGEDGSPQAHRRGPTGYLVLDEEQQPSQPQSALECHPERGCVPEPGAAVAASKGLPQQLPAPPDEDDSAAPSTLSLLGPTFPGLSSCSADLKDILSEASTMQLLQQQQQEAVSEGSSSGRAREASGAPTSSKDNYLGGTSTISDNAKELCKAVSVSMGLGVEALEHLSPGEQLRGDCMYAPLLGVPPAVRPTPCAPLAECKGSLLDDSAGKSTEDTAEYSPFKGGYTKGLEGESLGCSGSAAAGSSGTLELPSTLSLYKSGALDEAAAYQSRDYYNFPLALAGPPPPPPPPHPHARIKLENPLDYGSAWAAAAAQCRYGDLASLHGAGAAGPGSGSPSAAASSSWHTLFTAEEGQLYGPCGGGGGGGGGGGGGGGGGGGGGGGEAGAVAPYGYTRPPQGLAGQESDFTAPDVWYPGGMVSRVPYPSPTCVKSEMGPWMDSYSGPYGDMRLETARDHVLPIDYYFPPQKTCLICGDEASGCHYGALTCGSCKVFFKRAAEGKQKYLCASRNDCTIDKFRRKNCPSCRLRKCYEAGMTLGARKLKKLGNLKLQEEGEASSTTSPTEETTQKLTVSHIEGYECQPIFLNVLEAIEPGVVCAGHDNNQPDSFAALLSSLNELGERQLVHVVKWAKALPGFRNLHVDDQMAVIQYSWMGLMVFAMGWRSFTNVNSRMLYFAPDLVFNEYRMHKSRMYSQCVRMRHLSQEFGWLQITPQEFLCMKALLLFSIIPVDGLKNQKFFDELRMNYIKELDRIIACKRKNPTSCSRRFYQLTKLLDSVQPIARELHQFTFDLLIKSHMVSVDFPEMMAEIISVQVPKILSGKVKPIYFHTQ
Excerpt: Compounds can be tested in a cell based transactivation assay used to measure the antagonism of androgen receptor (AR) transcriptional activity. […] The human breast adenocarcinoma MDA-MB-453 cell line (American Type Culture Collection, Rockville, Md., ATCC#: HTB-131), expressing a functional endogenous wild type AR, was transiently transfected with a reporter plasmid and tested for AR dependent transactivation activity in the absence or presence of test compounds. The pGL3 PSA-Luc reporter plasmid is comprised of the cDNA for the firefly luciferase gene and the upstream promoter sequences containing the androgen response elements (AREs) of the prostate specific antigen (PSA). This plasmid functions as a reporter for the transcription-modulating activity of the AR. In order to detect antagonists, the transactivation assay is conducted in the presence of constant concentration of the natural AR hormone (DHT) to induce a defined reporter signal. Addition of increasing concentrations of the suspected antagonist will decrease the reporter signal (luciferase activity).
MDA-MB-453 and 22 RV1 cells were maintained in DMEM (Cellgro, Cat. #10-014-CM) or RPMI 1640 (Gibco Cat. #11875-085) respectively and supplemented with 10% FBS (Invitrogen/GIBCO Life Science). Cells were bulk transfected in flasks with 1.3 ug/ml pGL3 PSA-Luc plasmid by using the Lipofectamine 2000 Reagent (Invitrogen, Cat. #11668-019) and serum-free Opti-MEM I media (Invitrogen, Cat#31985-070) according to the manufacturer's optimized conditions. Transfection was conducted at 37° C. with 5% CO2 for 16-18 hours. Following transfection, cells are washed, treated with trypsin, counted, and seeded in a 96-well plate at 30,000 cells per well in DMEM containing 10% Charcoal/Dextran Treated Fetal Bovine Serum (Gibco Cat. #11054-020) for MDA-MB-453 cells or RPMI 1640 (Gibco Cat. #110835) containing 10% FBS (Invitrogen/GIBCO Life Science) for 22 RV1 cells.
Following transfection, cells were incubated in the absence (blank) or presence (control) of 3 nM DHT (Sigma, Cat. #A-8380) and in the presence or absence of the standard antiandrogen bicalutamide or test compounds ranging in concentrations from 10^−10 to 10^−5M. Duplicates were used for each sample. The compound dilutions were performed by the Tecan Genesis (Tecan, Triangle Park, N.C.). After a 48 hour incubation, luciferase activity was measured using the Steady-Glo Luciferase Assay System (Promega, Cat. #E2550) according to manufacturer's specifications and luminescence was measured on a Packard TopCount (PerkinElmer). For each luciferase sample reading, the percent control (in absence of compounds) was calculated as: % Control=100×[averagesample−averageblank]/[averagecontrol−averageblank] Data was plotted and the IC50 value was defined as the concentration of compound that inhibited 50% of the luciferase activity for the controls.

wild type AR = target: T2, wild type AR (Homo sapiens, UniProt P10275); experiment: AR Binding Assay (whole cell, MDA-MB-453, competition with [3H]-DHT); details: MDA-MB-453 cells, competition with 2 nM [3H]-DHT, Cheng-Prusoff
T2 sequence (P10275 1-920 Q868H): T1 sequence (P10275 1-920) with Q868H
Method: For the whole cell binding assay, human breast adenocarcinoma MDA-MB-453 cells (American Type Culture Collection, Rockville, Md., ATCC #: HTB-131), expressing a functional endogenous wild type AR, are grown to near confluency in T-225 tissue culture flasks containing Dulbecco's Modified Eagle Medium (DMEM) (Mediatech CAT #45000-668) supplemented with 10% fetal bovine serum (FBS) (Invitrogen/GIBCO Life Science). In order to remove any endogenous ligand that might be complexed with the receptor in the cells, the tissue culture media is removed and the cells are incubated overnight at 37° C. in serum-free DMEM. The next day, cells are rinsed with magnesium and calcium free Phosphate Buffered Saline (PBS) (Invitrogen/GIBCO Life Science), harvested using Cell Stripper Buffer (Mediatech) and re-suspended in serum-free DMEM to achieve a final assay concentration of 4×10^5 cells/well of a 96-well assay plate. […] After the remaining media is removed, cells are washed three times with PBS and harvested onto UniFilter GF/B plates (PerkinElmer).
Two replicates are used for each sample. After 90 minutes at room temperature, cells are harvested by filtering through a GF/B filter plate (PerkinElmer) followed by washing with ice-cold 1×PBS (without calcium and magnesium) to remove unbound label. […] After correcting for non-specific binding, IC50 values are determined. The IC50 value is defined as the concentration of competing ligand needed to reduce specific binding by 50%. […] The Ki values are determined by application of the Cheng-Prusoff equation to the IC50 values where: […]
See e.g., D. Rodbard, Mathematics and Statistics of Ligand Assays: An Illustrated Guide: In: J. Langon and J. J. Clapp, eds., Ligand Assay, Masson Publishing U.S.A., Inc., New York, pp. 45-99 (1981).

SMILES	EC50 (increase in organ weight) (immature castrated rats [1])	potency relative to free T (immature castrated rats [2])	serum concentrations of T and DHT relative to that of TP (immature castrated rats [1]; 2 hours after subcutaneous injection) [times]	IC50 (androgen receptor (AR)) [nM]	Ki (wild type AR) [nM]
CCC(=O)O[C@H]1CC[C@H]2[C@@H]3CCC4=CC(=O)CC[C@]4(C)[C@H]3CC[C@]12C [TP, testosterone propionate]	~0.03 mg	10-30 fold	–	–	–
C[C@]12CC[C@H]3[C@@H](CCC4=CC(=O)CC[C@@]43C)[C@@H]1CC[C@@H]2O [T, testosterone]	about 1 mg	–	5	–	–
COC(=O)N[C@H]1C[C@@H]2O[C@H]1[C@H]1CN(c3ccc(C#N)c(C(F)(F)F)c3)S(=O)(=O)[C@H]12 [Example 40i, methyl((1S,2R,6R,7S,8S)-4-(4-cyano-3-(trifluoromethyl)phenyl)-3,3-dioxido-10-oxa-3-thia-4-azatricyclo[5.2.1.0^2,6]dec-8-yl)carbamate]	–	–	–	977	46
C[C@@]12C=C[C@@H](O1)[C@@H]1CN(c3ccc(C#N)c(C(F)(F)F)c3)S(=O)(=O)[C@@H]12 (racemic) [Example 21ii, rac-4-((1R,2R,6R,7S)-1-methyl-3,3-dioxido-10-oxa-3-thia-4-azatricyclo[5.2.1.0^2,6]dec-8-en-4-yl)-2-(trifluoromethyl)benzonitrile]	–	–	–	1110	145
N#Cc1ccc(N2C[C@H]3[C@H]([C@H]4O[C@@H]3C[C@H]4F)S2(=O)=O)cc1C(F)(F)F [Example 14, 4-((1S,2R,6R,7R,9R)-9-fluoro-3,3-dioxido-10-oxa-3-thia-4-azatricyclo[5.2.1.0^2,6]dec-4-yl)-2-(trifluoromethyl)benzonitrile]	–	–	–	144	11
